# Assay results reported in paper PMC7005530, “A selective androgen receptor modulator SARM‐2f activates androgen receptor, increases lean body mass, and suppresses blood lipid levels in cynomolgus monkeys” (Pharmacology Research & Perspectives, 2020).
# Key:
# cynomolgus monkey AR = target: T1, cynomolgus monkey AR (Macaca fascicularis, UniProt O97952); assay: AR reporter assay (MMTV-luc) in COS7 cells expressing monkey AR; type: cell-based
# T1 construct: expressed in transfected cells; host or cells: COS7
# T1 sequence (O97952 1-895): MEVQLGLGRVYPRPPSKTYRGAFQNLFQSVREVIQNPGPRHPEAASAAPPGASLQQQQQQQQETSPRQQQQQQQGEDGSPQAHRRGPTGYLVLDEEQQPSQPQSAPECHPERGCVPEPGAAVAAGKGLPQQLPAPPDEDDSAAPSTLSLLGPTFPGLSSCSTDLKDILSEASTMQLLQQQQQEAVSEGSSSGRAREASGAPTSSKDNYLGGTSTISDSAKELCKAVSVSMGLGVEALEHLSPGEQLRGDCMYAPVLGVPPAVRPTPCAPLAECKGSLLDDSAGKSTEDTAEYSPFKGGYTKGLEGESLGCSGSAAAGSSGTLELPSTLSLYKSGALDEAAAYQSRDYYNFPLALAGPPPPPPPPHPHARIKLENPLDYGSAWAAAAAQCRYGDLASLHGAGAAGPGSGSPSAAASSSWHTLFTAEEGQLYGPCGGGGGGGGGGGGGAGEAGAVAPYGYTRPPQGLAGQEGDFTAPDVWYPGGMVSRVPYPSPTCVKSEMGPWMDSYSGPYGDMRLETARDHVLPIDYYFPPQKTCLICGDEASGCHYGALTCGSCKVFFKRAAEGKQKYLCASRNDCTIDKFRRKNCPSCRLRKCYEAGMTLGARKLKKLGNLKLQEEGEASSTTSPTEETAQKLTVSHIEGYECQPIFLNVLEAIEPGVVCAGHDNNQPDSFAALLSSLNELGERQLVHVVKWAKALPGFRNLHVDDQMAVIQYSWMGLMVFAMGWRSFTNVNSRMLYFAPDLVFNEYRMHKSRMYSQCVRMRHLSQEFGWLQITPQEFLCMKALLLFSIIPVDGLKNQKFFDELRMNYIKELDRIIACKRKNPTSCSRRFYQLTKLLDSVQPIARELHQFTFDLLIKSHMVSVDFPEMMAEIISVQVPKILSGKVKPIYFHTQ
# Procedure: Two hours post‐transfection, the cells were plated in 96‐well plates at a density of 2 × 10^4 cells/well, and cultured at 37°C for 3 hours. […] Luciferase activity was measured using the Steady‐Glo Luciferase assay system (Promega) and an Envision Multimode Plate Reader (PerkinElmer).
# In the reporter assays, EC50 was calculated using Graph Pad Prism version 6. The effects of SARM‐2f or TE on BW and LBM were analyzed by t test, with Bonferroni correction for repeated measurements.
# [1] = system: 126 biochemical activity assays (enzyme assays or radioligand binding assays); assay: 126 biochemical activity assays (enzyme assays or radioligand binding assays), MDS Pharma Service; details: at 10 µmol/L; Table S5 (picture, not readable)
# Source text: Based on these findings, we believe that SARM‐2f has no severe off‐target effects.
smiles,measurement,setting,value
"CC[C@H]1[C@@H](O)CC(=O)N1c1ccc(C#N)c(C(F)(F)F)c1 [SARM‐2f, 4′‐[(2S,3S)‐2‐Ethyl‐3‐hydroxy‐5‐oxopyrrolidin‐1‐yl]‐2′‐(trifluoromethyl) benzonitrile]",EC50,"cynomolgus monkey AR; monkey AR reporter assay (abstract), read-out: EC50",3 nM
same,maximal AR activation,"cynomolgus monkey AR; monkey AR, at 1 μmol/L, 1 μmol/L DHT = 100%",125%
same,molecules affected in 126 biochemical activity assays,[1],the only molecule that SARM‐2f affected at 10 µmol/L was AR
